We go through 30 compounds from patent US10703733B2, “MCL-1 inhibitors” (Gilead Sciences, Inc., priority 2018, dated 2020).

The structures appear in SMILES notation.

Sequence of MCL-1/Bim interaction (recombinant human MCL-1 protein, residues 171-327; biotinylated human Bim peptide, residues 51-76) (Q07820 171-327): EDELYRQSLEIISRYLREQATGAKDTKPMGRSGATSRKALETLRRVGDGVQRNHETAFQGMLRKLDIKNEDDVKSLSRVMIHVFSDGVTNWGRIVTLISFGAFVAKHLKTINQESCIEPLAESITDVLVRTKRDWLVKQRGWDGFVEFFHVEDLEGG

The test concerns the target MCL-1/Bim interaction (recombinant human MCL-1 protein, residues 171-327; biotinylated human Bim peptide, residues 51-76) (Homo sapiens (Human), UniProt Q07820). As to the kind of experiment: MCL-1/Bim Binding AlphaLISA Assay. The note with it: 0.0625 nM 6xHis-Mcl-1 (171-327), 0.0625 nM biotinylated-Bim peptide. How it is done: MCL-1/Bim Binding AlphaLISA Assay.
Inhibition of the MCL-1 and Bim interaction was measured in the following AlphaLISA assay.
Recombinant human MCL-1 protein (C-terminal 6×His Tagged Mcl-1 containing residues 171-327) was generated at Gilead Sciences, Inc. (Foster City, Calif.). A biotinylated peptide derived from human Bim (residues 51-76) was purchased from CPC Scientific (Sunnyvale, Calif.). (CPC 834113). AlphaLISA anti-6His-acceptor beads (AL128R), AlphaScreen Streptavidin donor beads (6760002B), and Proxiplate-384 Plus (6008289) were purchased from PerkinElmer.
The AlphaLISA assay was performed in a 384-well Proxiplate in a total volume of […]. The reaction mixture contained 0.0625 nM 6×His-Mcl-1 (171-327), 0.0625 nM biotinylated-Bim peptide, 10 μg/mL AlphaLISA anti-6×His-AlphaLISA acceptor beads, […] AlphaScreen streptavidin donor beads, and serially diluted test compounds in the binding buffer (20 mM Hepes, pH 7.5 (Teknova H1035); 150 mM NaCl (Promega V4221); 0.002% Brij 35 (Thermo Scientific 20150); 1 mM Dithiothreitol (DTT) Solution (Affymetrix 70726); 0.01% BSA (BioLabs B9000S)). 1,000×test compounds were pre-spotted onto 384-well Proxiplate (Labcyte Echo) by Echo 555 Liquid Handler (Labcyte Inc., San Jose, Calif.) followed by incubation of 5 μl Mcl-1(171-327) for 1 hour. Then 5 μL Bim (51-76) was added and incubated for 2 hours. Five μL AlphaLISA anti-6His-AlphaLISA acceptor beads were then added for 1 hour followed by addition of 5 μL AlphaScreen streptavidin donor beads for 1 hour. The reaction plates were then read on an Envision multimode reader (PerkinElmer) using AlphaScreen settings. […] Percent inhibition was calculated as shown below: % Inhibition=100%*(Well−Neg)/(Pos−Neg) Neg: negative control, DMSO Pos: positive control, no Mcl-1 protein, no biotinylated-Bim peptide
For `CO[C@H]1/C=C/C[C@H](C)[C@@H](C)[S@@](=O)(NC(=O)COC2COC2)=NC(=O)c2ccc3c(c2)N(C[C@@H]2CC[C@H]21)C[C@@]1(CCCc2cc(Cl)ccc21)CO3` [Example 407], the IC50 stood at 0.113 nM.
As for `CCOc1nn(C)cc1C(=O)N[S@@]1(=O)=NC(=O)c2ccc3c(c2)N(C[C@@H]2CC[C@H]2[C@@H](OC)/C=C/C[C@H](C)C1)C[C@@]1(CCCc2cc(Cl)ccc21)CO3` [Example 194], the IC50 came out at 0.03 nM.
With `CO[C@H]1/C=C/C[C@H](C)C[S@@](=O)(NC(=O)N[C@H]2[C@@H]3COC[C@@H]32)=NC(=O)c2ccc3c(c2)N(C[C@@H]2CC[C@H]21)C[C@@]1(CCCc2cc(Cl)ccc21)CO3` [Example 206] the figure was 0.047 nM.
With `CCn1cc(C(=O)N[S@@]2(=O)=NC(=O)c3ccc4c(c3)N(C[C@@H]3CC[C@H]3[C@@H](OC)/C=C/CCC2)C[C@@]2(CCCc3cc(Cl)ccc32)CO4)cn1` [Example 104] the figure was 0.1 nM; with `COC1CCCn2cc(C(=O)N[S@@]3(=O)=NC(=O)c4ccc5c(c4)N(C[C@@H]4CC[C@H]4[C@@H](OC)/C=C/C[C@H](C)C3)C[C@@]3(CCCc4cc(Cl)ccc43)CO5)cc2C1` (stereo partly drawn) [Example 190], 0.055 nM; with `CO[C@H]1/C=C/C[C@H](C)C[S@@](=O)(NC(=O)N[C@H]2C[C@H]2F)=NC(=O)c2ccc3c(c2)N(C[C@@H]2CC[C@H]21)C[C@@]1(CCCc2cc(Cl)ccc21)CO3` [Example 115], 0.068 nM.
Turning to `CO[C@H]1/C=C/C[C@H](C)C[S@@](=O)(NC(=O)N[C@H]2C[C@@](C)(OC)C2)=NC(=O)c2ccc3c(c2)N(C[C@@H]2CC[C@H]21)C[C@@]1(CCCc2cc(Cl)ccc21)CO3` [Example 193], the IC50 turned out to be 0.046 nM.
In the case of `COc1nn(C)cc1C(=O)N[S@@]1(=O)=NC(=O)c2ccc3c(c2)N(C[C@@H]2CC[C@H]2[C@@H](OC)/C=C/C[C@H](C)C1)C[C@@]1(CCCc2cc(Cl)ccc21)CO3` [Example 154], the IC50 was 0.05 nM.
For `CO[C@H]1/C=C/C[C@H](C)C[S@@](=O)(NC(=O)COC2CCOCC2)=NC(=O)c2ccc3c(c2)N(C[C@@H]2CC[C@H]21)C[C@@]1(CCCc2cc(Cl)ccc21)CO3` [Example 106] the value was 0.1 nM; for `C[C@@H]1[C@@H](C)C/C=C/[C@H](O)[C@@H]2CC[C@H]2CN2C[C@@]3(CCCc4cc(Cl)ccc43)COc3ccc(cc32)C(=O)N=[S@]1(=O)NC(=O)c1cc2n(c1)CC(C)(CN1CCOCC1)OC2` (stereo partly drawn) [Example 259], 0.098 nM.
Take `C[C@@H]1[C@@H](C)C/C=C/[C@H](O)[C@@H]2CC[C@H]2CN2C[C@@]3(CCCc4cc(Cl)ccc43)COc3ccc(cc32)C(=O)N=[S@]1(=O)NC(=O)N[C@@H]1C[C@H]1C(F)F` [Example 260]: the IC50 amounted to 0.061 nM.
`COC[C@H]1Cn2cc(C(=O)N[S@@]3(=O)=NC(=O)c4ccc5c(c4)N(C[C@@H]4CC[C@H]4[C@@H](OC)/C=C/C[C@H](C)[C@H]3C)C[C@@]3(CCCc4cc(Cl)ccc43)CO5)cc2CO1` [Example 215]: the IC50 stood at 0.203 nM.
Take `COCCOc1nn(C)cc1C(=O)N[S@@]1(=O)=NC(=O)c2ccc3c(c2)N(C[C@@H]2CC[C@H]2[C@@H](OC)/C=C/C[C@H](C)C1)C[C@@]1(CCCc2cc(Cl)ccc21)CO3` [Example 216]: the IC50 worked out at 0.196 nM.
As to `COCC(=O)NS1(=O)=NC(=O)c2ccc3c(c2)N(C[C@@H]2CC[C@H]2[C@@H](OC)/C=C/CCC1)C[C@@]1(CCCc2cc(Cl)ccc21)CO3` (single isomer, unassigned) [Example 8], the 50% inhibitory concentration (IC50) is 0.7 nM.
With `CO[C@H]1/C=C/C[C@H](C)C[S@@](=O)(NC(=O)c2cc(CN(C)C3CCOCC3)n(C)c2)=NC(=O)c2ccc3c(c2)N(C[C@@H]2CC[C@H]21)C[C@@]1(CCCc2cc(Cl)ccc21)CO3` [Example 241] the figure was 0.087 nM; with `CO[C@H]1/C=C/C[C@H](C)[C@@H](C)[S@](N)(=O)=NC(=O)c2ccc3c(c2)N(C[C@@H]2CC[C@H]21)C[C@@]1(CCCc2cc(Cl)ccc21)CO3` (single isomer, unassigned) [Example 110], 2.63 nM; with `CO[C@H]1/C=C/C[C@H](C)C[S@](N)(=O)=NC(=O)c2ccc3c(c2)N(C[C@@H]2CC[C@H]21)C[C@@]1(CCCc2cc(Cl)ccc21)CO3` (single isomer, unassigned) [Example 109], 10.6 nM.
On to `COCC1(C)Cn2cc(C(=O)N[S@@]3(=O)=NC(=O)c4ccc5c(c4)N(C[C@@H]4CC[C@H]4[C@@H](O)/C=C/C[C@H](C)[C@H]3C)C[C@@]3(CCCc4cc(Cl)ccc43)CO5)cc2CO1` (stereo partly drawn) [Example 255], for which the IC50 came to 0.096 nM.
As to `COc1nnc(C)cc1C(=O)N[S@@]1(=O)=NC(=O)c2ccc3c(c2)N(C[C@@H]2CC[C@H]2[C@@H](OC)/C=C/C[C@H](C)C1)C[C@@]1(CCCc2cc(Cl)ccc21)CO3` [Example 460], the IC50 turned out to be 0.089 nM.
As to `CO[C@H]1/C=C/C[C@H](C)C[S@@](=O)(NC(=O)c2cnn(C3CC3)c2)=NC(=O)c2ccc3c(c2)N(C[C@@H]2CC[C@H]21)C[C@@]1(CCCc2cc(Cl)ccc21)CO3` [Example 151], the IC50 worked out at 0.036 nM.
In the case of `COc1nn(C)cc1C(=O)NS1(=O)=NC(=O)c2ccc3c(c2)N(C[C@@H]2CC[C@H]2[C@@H](OC)/C=C/C[C@H](C)C1)C[C@@]1(CCCc2cc(Cl)ccc21)CO3` (single isomer, unassigned) [Example 388], the IC50 was determined as 1.06 nM.
On to `C[C@@H]1[C@@H](C)C/C=C/[C@H](O)[C@@H]2CC[C@H]2CN2C[C@@]3(CCCc4cc(Cl)ccc43)COc3ccc(cc32)C(=O)N=[S@]1(=O)NC(=O)c1cc2n(c1)CC1(COC1)OC2` [Example 239], for which the IC50 is 0.042 nM.
`CO[C@H]1/C=C/C[C@H](C)[C@@H](C)[S@@](=O)(NC(=O)COC2CCOCC2)=NC(=O)c2ccc3c(c2)N(C[C@@H]2CC[C@H]21)C[C@@]1(CCCc2cc(Cl)ccc21)CO3` [Example 108]: the IC50 turned out to be 0.1 nM.
Turning to `C[C@@H]1[C@@H](C)C/C=C/[C@H](O)[C@@H]2CC[C@H]2CN2C[C@@]3(CCCc4cc(Cl)ccc43)COc3ccc(cc32)C(=O)N=[S@]1(=O)NC(=O)c1cc2n(c1)CC(C)(C)OC2` [Example 264], the IC50 worked out at 0.263 nM.
As for `CO[C@H]1/C=C/C[C@H](C)C[S@@](=O)(NC(=O)NCC2CC2)=NC(=O)c2ccc3c(c2)N(C[C@@H]2CC[C@H]21)C[C@@]1(CCCc2cc(Cl)ccc21)CN3` [Example 107], the IC50 was 0.1 nM.
As for `COC[C@H]1C[C@H](NC(=O)N[S@@]2(=O)=NC(=O)c3ccc4c(c3)N(C[C@@H]3CC[C@H]3[C@@H](OC)/C=C/C[C@H](C)C2)C[C@@]2(CCCc3cc(Cl)ccc32)CO4)C1` [Example 200], the half-inhibitory concentration (IC50) came to 0.064 nM.
For `COc1nn(C)cc1C(=O)N[S@@]1(=O)=NC(=O)c2ccc3c(c2)N(C[C@@H]2CC[C@H]2[C@@H](OC)/C=C/[C@H](O)[C@H](C)C1)C[C@@]1(CCCc2cc(Cl)ccc21)CO3` [Example 279] the value was 0.041 nM.
`CO[C@H]1/C=C/CCC[S@@](=O)(NC(=O)c2cnn(C)c2)=NC(=O)c2ccc3c(c2)N(C[C@@H]2CC[C@H]21)C[C@@]1(CCCc2cc(Cl)ccc21)CO3` [Example 113]: the IC50 was determined as 0.046 nM.
Consider `CO[C@H]1/C=C/C[C@H](C)C[S@@](=O)(NC(=O)N2CC(Oc3ccccn3)C2)=NC(=O)c2ccc3c(c2)N(C[C@@H]2CC[C@H]21)C[C@@]1(CCCc2cc(Cl)ccc21)CO3` [Example 463], for which the IC50 worked out at 0.219 nM.
For `COCCO[C@H]1/C=C/[C@H](OC)[C@@H]2CC[C@H]2CN2C[C@@]3(CCCc4cc(Cl)ccc43)COc3ccc(cc32)C(=O)N=[S@](=O)(NC(=O)c2cn(C)nc2OC)C[C@H]1C` [Example 291], the IC50 turned out to be 0.039 nM.

A word on the IC50: it is the concentration needed to halve the response being measured.
